BindingDB's records for doi:10.1016/j.bmc.2009.10.032 (NIH, 2009)

Assays:
[1] = target: E3 ubiquitin-protein ligase Mdm2 (Homo sapiens, UniProt Q00987); test: Fluorescence Anisotropy Competition Binding Assay
Description: (§1) Inhibitory activities of NAPAs were measured by fluorescence anisotropy competition experiments. Protein was incubated with fluorescein-labeled human p53 peptide in the presence of test compound. Experiments were performed with a 70-fold molar excess of protein over labeled p53-peptide to ensure that the peptide is completely bound by the protein. […] Fluorescence anisotropy was measured at 25 deg C on a Beacon 2000 (PanVera, Madison, WI). Data points were measured in triplicate. IC50 values were calculated by nonlinear regression curve fitting.

[2] = target: T1, Protein Mdm4 (Homo sapiens, UniProt O15151); test: Fluorescence Anisotropy Competition Binding Assay
T1 sequence (O15151 whole entry): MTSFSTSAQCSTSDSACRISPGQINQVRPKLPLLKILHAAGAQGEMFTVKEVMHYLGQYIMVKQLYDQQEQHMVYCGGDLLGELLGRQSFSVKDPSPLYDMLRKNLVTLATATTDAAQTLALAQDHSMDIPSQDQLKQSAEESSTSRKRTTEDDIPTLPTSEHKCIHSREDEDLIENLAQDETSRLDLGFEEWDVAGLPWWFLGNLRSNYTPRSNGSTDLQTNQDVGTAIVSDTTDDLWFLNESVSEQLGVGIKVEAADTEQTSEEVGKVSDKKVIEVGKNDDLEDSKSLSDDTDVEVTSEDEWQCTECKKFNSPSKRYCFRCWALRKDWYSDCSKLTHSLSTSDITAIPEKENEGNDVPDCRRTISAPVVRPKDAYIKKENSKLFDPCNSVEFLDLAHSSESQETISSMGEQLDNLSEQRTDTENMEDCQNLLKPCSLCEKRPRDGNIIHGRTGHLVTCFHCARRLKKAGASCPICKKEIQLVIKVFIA
Description: as §1

Sequence of E3 ubiquitin-protein ligase Mdm2 (Q00987 whole entry): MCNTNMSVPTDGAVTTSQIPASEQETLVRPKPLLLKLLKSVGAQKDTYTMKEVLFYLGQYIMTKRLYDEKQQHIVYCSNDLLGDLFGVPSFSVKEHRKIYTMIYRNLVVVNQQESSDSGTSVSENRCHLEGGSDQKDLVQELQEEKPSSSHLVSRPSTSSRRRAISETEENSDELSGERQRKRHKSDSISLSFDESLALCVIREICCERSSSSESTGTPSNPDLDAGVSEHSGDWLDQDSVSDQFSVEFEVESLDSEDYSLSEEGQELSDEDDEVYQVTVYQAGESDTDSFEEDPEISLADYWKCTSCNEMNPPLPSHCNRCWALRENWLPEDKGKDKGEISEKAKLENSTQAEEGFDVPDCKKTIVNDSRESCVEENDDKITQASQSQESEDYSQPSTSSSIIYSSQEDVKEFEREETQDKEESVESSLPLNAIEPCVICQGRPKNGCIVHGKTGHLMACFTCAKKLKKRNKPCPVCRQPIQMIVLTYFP

Row | SMILES | IC50 [1] | IC50 [2] | IC50 ([1]; pH 7.6, 23 °C)
1 | CC(C)CCC(=O)NC(CCC(=O)O)CN(CCCCCC1CCCCC1)C(CCCCN)CN(CCCCc1ccc(Br)cc1)C(CCC(=O)O)CN(CCCCCc1ccc(F)cc1)CCC(N)=O (centres undefined) [N-acylpolyamine (NAPA) scaffold, 36] | > 100 µM | > 100 µM | –
2 | NCCCCC(CN(C(=O)NCCc1ccc(Br)cc1)C(CCC(=O)O)CN(CCC(N)=O)C(=O)NCCCc1ccc(Br)cc1)N(CC(CCC(=O)O)NC(=O)Nc1ccccc1)C(=O)NCCCC1CCCCC1 (centres undefined) [N-acylpolyamine (NAPA) scaffold, 19] | – | 7.6 µM | 10.5 µM
